# Measurements as given in ChEMBL document CHEMBL1201861, “Genomics of Drug Sensitity in Cancer screening data, Wellcome Trust Sanger Institute”.
# Tested on: REH;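 further: growth inhibition of REH cells determined with a cell viability read-out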
# Test: cells
# Type: functional, cell-based, Homo sapiens
# Details: Homo sapiens, REH
# Description: SANGER: Inhibition of human REH cell growth in a cell viability assay.
row,SMILES,IC50 [µM]
1,COc1ccc(-c2cc3nccn3c(Nc3ncccc3C(N)=O)n2)cc1OC,2.25

# Tested on: NCI-H1694;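 further: cell viability assay measuring inhibition of growth in human NCI-H1694 cells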
# Test: cells
# Type: functional, cell-based, Homo sapiens
# Details: Homo sapiens, NCI-H1694
# Description: SANGER: Inhibition of human NCI-H1694 cell growth in a cell viability assay.
row,SMILES,IC50 [µM]
1,COc1ccc(-c2cc3nccn3c(Nc3ncccc3C(N)=O)n2)cc1OC,> 8

# Tested on: LK-2;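 further: growth inhibition of LK-2 cells, read out with a viability assay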
# Test: cells
# Type: functional, cell-based
# Details: Homo sapiens
# Description: SANGER: Inhibition of human LK-2 cell growth in a cell viability assay.
row,SMILES,IC50 [µM]
1,COc1ccc(-c2cc3nccn3c(Nc3ncccc3C(N)=O)n2)cc1OC,> 8

# Tested on: BC1 cell line
# Test: SANGER: Inhibition of human BC-1 cell growth in a cell viability assay.
# Type: functional, cell-based
# Details: Homo sapiens, BC1
row,SMILES,IC50 [µM]
1,COc1ccc(-c2cc3nccn3c(Nc3ncccc3C(N)=O)n2)cc1OC,1.07

# Tested on: NCI-H2228;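 further: growth inhibition of human NCI-H2228 cells, read out by a cell viability assay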
# Test: cells
# Type: functional, cell-based
# Details: Homo sapiens
# Description: SANGER: Inhibition of human NCI-H2228 cell growth in a cell viability assay.
row,SMILES,IC50 [µM]
1,COc1ccc(-c2cc3nccn3c(Nc3ncccc3C(N)=O)n2)cc1OC,4.34

# Tested on: HCC1806;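 further: growth inhibition of the cancer cell line, determined with a cell viability assay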
# Test: cells
# Type: functional, cell-based
# Details: Homo sapiens
# Description: SANGER: Inhibition of human HCC1806 cell growth in a cell viability assay.
row,SMILES,IC50 [µM]
1,COc1ccc(-c2cc3nccn3c(Nc3ncccc3C(N)=O)n2)cc1OC,> 8

# Tested on: PC-3;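 further: cell viability assay measuring growth inhibition of PC-3 cells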
# Test: cells
# Type: functional, cell-based
# Details: Homo sapiens
# Description: SANGER: Inhibition of human PC-3 cell growth in a cell viability assay.
row,SMILES,IC50 [µM]
1,COc1ccc(-c2cc3nccn3c(Nc3ncccc3C(N)=O)n2)cc1OC,> 8

# Tested on: JIYOYE
# Test: cells
# Type: functional, cell-based, Homo sapiens
# Details: Homo sapiens, JIYOYE
# Description: SANGER: Inhibition of human JiyoyeP-2003 cell growth in a cell viability assay.
row,SMILES,IC50 [µM]
1,COc1ccc(-c2cc3nccn3c(Nc3ncccc3C(N)=O)n2)cc1OC,1.55

# Tested on: KYSE-70 cell line;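 further: cell viability assay read-out, with IC50 expressing suppression of KYSE-70 cell growth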
# Test: cells
# Type: functional, cell-based
# Details: Homo sapiens
# Description: SANGER: Inhibition of human KYSE-70 cell growth in a cell viability assay.
row,SMILES,IC50 [µM]
1,COc1ccc(-c2cc3nccn3c(Nc3ncccc3C(N)=O)n2)cc1OC,> 8

# Tested on: NCI-H2052;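 further: growth inhibition of NCI-H2052 cells, read out with a cell viability assay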
# Test: cells
# Type: functional, cell-based
# Details: Homo sapiens
# Description: SANGER: Inhibition of human NCI-H2052 cell growth in a cell viability assay.
row,SMILES,IC50 [µM]
1,COc1ccc(-c2cc3nccn3c(Nc3ncccc3C(N)=O)n2)cc1OC,> 8

# Tested on: RPMI-6666
# Test: cells
# Type: functional, cell-based, Homo sapiens
# Details: Homo sapiens, RPMI-6666
# Description: SANGER: Inhibition of human RPMI-6666 cell growth in a cell viability assay.
row,SMILES,IC50 [µM]
1,COc1ccc(-c2cc3nccn3c(Nc3ncccc3C(N)=O)n2)cc1OC,1.44

# Tested on: NB1;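 further: reduction of NB1 cell proliferation, read out with a viability assay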
# Test: cells
# Type: functional, cell-based, Homo sapiens
# Details: Homo sapiens, NB1
# Description: SANGER: Inhibition of human NB1 cell growth in a cell viability assay.
row,SMILES,IC50 [µM]
1,COc1ccc(-c2cc3nccn3c(Nc3ncccc3C(N)=O)n2)cc1OC,1.71

# Tested on: HOS;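 further: growth inhibition of human HOS cells, read out with a cell viability assay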
# Test: cells
# Type: functional, cell-based
# Details: Homo sapiens
# Description: SANGER: Inhibition of human HOS cell growth in a cell viability assay.
row,SMILES,IC50 [µM]
1,COc1ccc(-c2cc3nccn3c(Nc3ncccc3C(N)=O)n2)cc1OC,3.32

# Tested on: NCI-H748;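 further: growth inhibition of NCI-H748 cells, measured by a cell viability assay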
# Test: cells
# Type: functional, cell-based, Homo sapiens
# Details: Homo sapiens, NCI-H748
# Description: SANGER: Inhibition of human NCI-H748 cell growth in a cell viability assay.
row,SMILES,IC50 [µM]
1,COc1ccc(-c2cc3nccn3c(Nc3ncccc3C(N)=O)n2)cc1OC,> 8

# Tested on: T84;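 further: growth inhibition measured with a cell viability readout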
# Test: cells
# Type: functional, cell-based
# Details: Homo sapiens
# Description: SANGER: Inhibition of human T84 cell growth in a cell viability assay.
row,SMILES,IC50 [µM]
1,COc1ccc(-c2cc3nccn3c(Nc3ncccc3C(N)=O)n2)cc1OC,3.23

# Tested on: HEC-1;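 further: growth inhibition of the cell line, read out with a cell viability assay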
# Test: cells
# Type: functional, cell-based
# Details: Homo sapiens
# Description: SANGER: Inhibition of human HEC-1 cell growth in a cell viability assay.
row,SMILES,IC50 [µM]
1,COc1ccc(-c2cc3nccn3c(Nc3ncccc3C(N)=O)n2)cc1OC,> 8

# Tested on: CAKI-1;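 further: growth inhibition of CAKI-1 cells, measured by a cell viability assay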
# Test: cells
# Type: functional, cell-based
# Details: Homo sapiens
# Description: SANGER: Inhibition of human CAKI-1 cell growth in a cell viability assay.
row,SMILES,IC50 [µM]
1,COc1ccc(-c2cc3nccn3c(Nc3ncccc3C(N)=O)n2)cc1OC,6.1

# Tested on: BC-3;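 further: cell viability assay measuring growth inhibition of human BC-3 cells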
# Test: cells
# Type: functional, cell-based, Homo sapiens
# Details: Homo sapiens, BC-3
# Description: SANGER: Inhibition of human BC-3 cell growth in a cell viability assay.
row,SMILES,IC50 [µM]
1,COc1ccc(-c2cc3nccn3c(Nc3ncccc3C(N)=O)n2)cc1OC,2.47

# Tested on: MDA-MB-453
# Test: cells
# Type: functional, cell-based
# Details: Homo sapiens
# Description: SANGER: Inhibition of human MDA-MB-453 cell growth in a cell viability assay.
row,SMILES,IC50 [µM]
1,COc1ccc(-c2cc3nccn3c(Nc3ncccc3C(N)=O)n2)cc1OC,> 8

# Tested on: CaR-1;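 further: growth inhibition of human CaR-1 cancer cells, read out with a cell viability assay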
# Test: cells
# Type: functional, cell-based
# Details: Homo sapiens
# Description: SANGER: Inhibition of human CaR-1 cell growth in a cell viability assay.
row,SMILES,IC50 [µM]
1,COc1ccc(-c2cc3nccn3c(Nc3ncccc3C(N)=O)n2)cc1OC,> 8

# Tested on: KU-19-19
# Test: cells
# Type: functional, cell-based
# Details: Homo sapiens
# Description: SANGER: Inhibition of human KU-19-19 cell growth in a cell viability assay.
row,SMILES,IC50 [µM]
1,COc1ccc(-c2cc3nccn3c(Nc3ncccc3C(N)=O)n2)cc1OC,> 8

# Tested on: ACHN;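 further: cell viability read-out used to gauge how strongly growth of human ACHN cells is suppressed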
# Test: cells
# Type: functional, cell-based
# Details: Homo sapiens
# Description: SANGER: Inhibition of human ACHN cell growth in a cell viability assay.
row,SMILES,IC50 [µM]
1,COc1ccc(-c2cc3nccn3c(Nc3ncccc3C(N)=O)n2)cc1OC,1.38

# Tested on: HT-3;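 further: growth inhibition measured with a cell viability readout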
# Test: cells
# Type: functional, cell-based
# Details: Homo sapiens
# Description: SANGER: Inhibition of human HT-3 cell growth in a cell viability assay.
row,SMILES,IC50 [µM]
1,COc1ccc(-c2cc3nccn3c(Nc3ncccc3C(N)=O)n2)cc1OC,> 8

# Tested on: Ca9-22;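 further: growth inhibition of Ca9-22 cells, read out with a cell viability assay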
# Test: cells
# Type: functional, cell-based
# Details: Homo sapiens
# Description: SANGER: Inhibition of human Ca9-22 cell growth in a cell viability assay.
row,SMILES,IC50 [µM]
1,COc1ccc(-c2cc3nccn3c(Nc3ncccc3C(N)=O)n2)cc1OC,> 8

# Tested on: SK-MES-1;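 further: growth inhibition of human SK-MES-1 cells, read out with a cell viability assay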
# Test: cells
# Type: functional, cell-based
# Details: Homo sapiens
# Description: SANGER: Inhibition of human SK-MES-1 cell growth in a cell viability assay.
row,SMILES,IC50 [µM]
1,COc1ccc(-c2cc3nccn3c(Nc3ncccc3C(N)=O)n2)cc1OC,1.81

# Tested on: Capan-2;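 further: Capan-2 cell growth inhibition, read out with a viability assay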
# Test: cells
# Type: functional, cell-based
# Details: Homo sapiens
# Description: SANGER: Inhibition of human Capan-2 cell growth in a cell viability assay.
row,SMILES,IC50 [µM]
1,COc1ccc(-c2cc3nccn3c(Nc3ncccc3C(N)=O)n2)cc1OC,> 8

# Tested on: Daoy;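 further: daoy cell growth inhibition, read out as cell viability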
# Test: cells
# Type: functional, cell-based
# Details: Homo sapiens
# Description: SANGER: Inhibition of human Daoy cell growth in a cell viability assay.
row,SMILES,IC50 [µM]
1,COc1ccc(-c2cc3nccn3c(Nc3ncccc3C(N)=O)n2)cc1OC,> 8

# Tested on: NCI-H2170;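 further: cell viability assay measuring growth inhibition of human NCI-H2170 cancer cells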
# Test: cells
# Type: functional, cell-based
# Details: Homo sapiens
# Description: SANGER: Inhibition of human NCI-H2170 cell growth in a cell viability assay.
row,SMILES,IC50 [µM]
1,COc1ccc(-c2cc3nccn3c(Nc3ncccc3C(N)=O)n2)cc1OC,5.35

# Tested on: PFSK-1;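 further: cell viability assay measuring how strongly compounds suppress growth of human PFSK-1 cells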
# Test: cells
# Type: functional, cell-based
# Details: Homo sapiens
# Description: SANGER: Inhibition of human PFSK-1 cell growth in a cell viability assay.
row,SMILES,IC50 [µM]
1,COc1ccc(-c2cc3nccn3c(Nc3ncccc3C(N)=O)n2)cc1OC,7.19

# Tested on: LC4-1;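 further: growth inhibition of LC4-1 cells, read out with a cell viability assay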
# Test: cells
# Type: functional, cell-based, Homo sapiens
# Details: Homo sapiens, LC4-1
# Description: SANGER: Inhibition of human LC4-1 cell growth in a cell viability assay.
row,SMILES,IC50 [µM]
1,COc1ccc(-c2cc3nccn3c(Nc3ncccc3C(N)=O)n2)cc1OC,5.98

# Tested on: CPC-N;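 further: growth inhibition of CPC-N cells, with a cell viability assay as the readout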
# Test: cells
# Type: functional, cell-based, Homo sapiens
# Details: Homo sapiens, CPC-N
# Description: SANGER: Inhibition of human CPC-N cell growth in a cell viability assay.
row,SMILES,IC50 [µM]
1,COc1ccc(-c2cc3nccn3c(Nc3ncccc3C(N)=O)n2)cc1OC,> 8

# Tested on: NCI-H716;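 further: growth inhibition of human NCI-H716 cells, measured by a cell viability assay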
# Test: cells
# Type: functional, cell-based, Homo sapiens
# Details: Homo sapiens, NCI-H716
# Description: SANGER: Inhibition of human NCI-H716 cell growth in a cell viability assay.
row,SMILES,IC50 [µM]
1,COc1ccc(-c2cc3nccn3c(Nc3ncccc3C(N)=O)n2)cc1OC,> 8

# Tested on: BFTC-909
# Test: cells
# Type: functional, cell-based
# Details: Homo sapiens
# Description: SANGER: Inhibition of human BFTC-909 cell growth in a cell viability assay.
row,SMILES,IC50 [µM]
1,COc1ccc(-c2cc3nccn3c(Nc3ncccc3C(N)=O)n2)cc1OC,> 8

# Tested on: A2058;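 further: reduction of A2058 cell growth, read out with a viability assay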
# Test: cells
# Type: functional, cell-based
# Details: Homo sapiens
# Description: SANGER: Inhibition of human A2058 cell growth in a cell viability assay.
row,SMILES,IC50 [µM]
1,COc1ccc(-c2cc3nccn3c(Nc3ncccc3C(N)=O)n2)cc1OC,> 8

# Tested on: CESS
# Test: SANGER: Inhibition of human CESS cell growth in a cell viability assay.
# Type: functional, cell-based
# Details: Homo sapiens, CESS
row,SMILES,IC50 [µM]
1,COc1ccc(-c2cc3nccn3c(Nc3ncccc3C(N)=O)n2)cc1OC,1.45

# Tested on: HOP-92;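 further: cell viability readout, with IC50 reflecting inhibition of HOP-92 cell growth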
# Test: cells
# Type: functional, cell-based
# Details: Homo sapiens
# Description: SANGER: Inhibition of human HOP-92 cell growth in a cell viability assay.
row,SMILES,IC50 [µM]
1,COc1ccc(-c2cc3nccn3c(Nc3ncccc3C(N)=O)n2)cc1OC,> 8

# Tested on: HCC38;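 further: cell viability assay on the human HCC38 cell line, with IC50 marking the concentration that inhibits cell growth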
# Test: cells
# Type: functional, cell-based
# Details: Homo sapiens
# Description: SANGER: Inhibition of human HCC38 cell growth in a cell viability assay.
row,SMILES,IC50 [µM]
1,COc1ccc(-c2cc3nccn3c(Nc3ncccc3C(N)=O)n2)cc1OC,> 8

# Tested on: TYK-nu;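 further: growth inhibition of human TYK-nu cells, read out by a cell viability assay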
# Test: cells
# Type: functional, cell-based
# Details: Homo sapiens
# Description: SANGER: Inhibition of human TYK-nu cell growth in a cell viability assay.
row,SMILES,IC50 [µM]
1,COc1ccc(-c2cc3nccn3c(Nc3ncccc3C(N)=O)n2)cc1OC,> 8

# Tested on: KARPAS-422
# Test: cells
# Type: functional, cell-based, Homo sapiens
# Details: Homo sapiens, KARPAS-422
# Description: SANGER: Inhibition of human KARPAS-422 cell growth in a cell viability assay.
row,SMILES,IC50 [µM]
1,COc1ccc(-c2cc3nccn3c(Nc3ncccc3C(N)=O)n2)cc1OC,2.5

# Tested on: HCC70;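 further: cell viability assay measuring how strongly the compound suppresses proliferation of HCC70 cells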
# Test: cells
# Type: functional, cell-based
# Details: Homo sapiens
# Description: SANGER: Inhibition of human HCC70 cell growth in a cell viability assay.
row,SMILES,IC50 [µM]
1,COc1ccc(-c2cc3nccn3c(Nc3ncccc3C(N)=O)n2)cc1OC,1.93

# Tested on: SW1417;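 further: growth inhibition of human SW1417 cells, read out with a cell viability assay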
# Test: cells
# Type: functional, cell-based
# Details: Homo sapiens
# Description: SANGER: Inhibition of human SW1417 cell growth in a cell viability assay.
row,SMILES,IC50 [µM]
1,COc1ccc(-c2cc3nccn3c(Nc3ncccc3C(N)=O)n2)cc1OC,> 8

# Tested on: RT-112
# Test: cells
# Type: functional, cell-based
# Details: Homo sapiens
# Description: SANGER: Inhibition of human RT-112 cell growth in a cell viability assay.
row,SMILES,IC50 [µM]
1,COc1ccc(-c2cc3nccn3c(Nc3ncccc3C(N)=O)n2)cc1OC,> 8

# Tested on: T98G;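 further: growth inhibition of T98G cells, read out by a cell viability assay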
# Test: cells
# Type: functional, cell-based
# Details: Homo sapiens
# Description: SANGER: Inhibition of human T98G cell growth in a cell viability assay.
row,SMILES,IC50 [µM]
1,COc1ccc(-c2cc3nccn3c(Nc3ncccc3C(N)=O)n2)cc1OC,> 8

# Tested on: EB-3;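 further: human EB-3 cells, growth inhibition read out via a cell viability assay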
# Test: cells
# Type: functional, cell-based, Homo sapiens
# Details: Homo sapiens, EB-3
# Description: SANGER: Inhibition of human EB-3 cell growth in a cell viability assay.
row,SMILES,IC50 [µM]
1,COc1ccc(-c2cc3nccn3c(Nc3ncccc3C(N)=O)n2)cc1OC,> 8

# Tested on: HT-1376
# Test: cells
# Type: functional, cell-based
# Details: Homo sapiens
# Description: SANGER: Inhibition of human HT-1376 cell growth in a cell viability assay.
row,SMILES,IC50 [µM]
1,COc1ccc(-c2cc3nccn3c(Nc3ncccc3C(N)=O)n2)cc1OC,3.25

# Tested on: H4
# Test: cells
# Type: functional, cell-based
# Details: Homo sapiens
# Description: SANGER: Inhibition of human H4 cell growth in a cell viability assay.
row,SMILES,IC50 [µM]
1,COc1ccc(-c2cc3nccn3c(Nc3ncccc3C(N)=O)n2)cc1OC,> 8

# Tested on: KP-N-YN;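 further: growth inhibition of KP-N-YN cells, read out with a cell viability assay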
# Test: cells
# Type: functional, cell-based
# Details: Homo sapiens
# Description: SANGER: Inhibition of human KP-N-YN cell growth in a cell viability assay.
row,SMILES,IC50 [µM]
1,COc1ccc(-c2cc3nccn3c(Nc3ncccc3C(N)=O)n2)cc1OC,> 8

# Tested on: BHY;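 further: cell growth inhibition read out by a viability assay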
# Test: cells
# Type: functional, cell-based
# Details: Homo sapiens
# Description: SANGER: Inhibition of human BHY cell growth in a cell viability assay.
row,SMILES,IC50 [µM]
1,COc1ccc(-c2cc3nccn3c(Nc3ncccc3C(N)=O)n2)cc1OC,2.81

# Tested on: LB647-SCLC;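 further: cell growth inhibition, read out by a viability assay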
# Test: cells
# Type: functional, cell-based, Homo sapiens
# Details: Homo sapiens, LB647-SCLC
# Description: SANGER: Inhibition of human LB647-SCLC cell growth in a cell viability assay.
row,SMILES,IC50 [µM]
1,COc1ccc(-c2cc3nccn3c(Nc3ncccc3C(N)=O)n2)cc1OC,> 8

# Tested on: SU-DHL-1
# Test: SANGER: Inhibition of human SU-DHL-1 cell growth in a cell viability assay.
# Type: functional, cell-based
# Details: Homo sapiens, SU-DHL-1
row,SMILES,IC50 [µM]
1,COc1ccc(-c2cc3nccn3c(Nc3ncccc3C(N)=O)n2)cc1OC,> 8

# Tested on: HuO-3N1;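 further: cell viability readout used to measure how strongly compounds suppress proliferation of human HuO-3N1 cells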
# Test: cells
# Type: functional, cell-based
# Details: Homo sapiens
# Description: SANGER: Inhibition of human HuO-3N1 cell growth in a cell viability assay.
row,SMILES,IC50 [µM]
1,COc1ccc(-c2cc3nccn3c(Nc3ncccc3C(N)=O)n2)cc1OC,> 8

# Tested on: SCC-4;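 further: growth inhibition of human SCC-4 cells, read out as cell viability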
# Test: cells
# Type: functional, cell-based
# Details: Homo sapiens
# Description: SANGER: Inhibition of human SCC-4 cell growth in a cell viability assay.
row,SMILES,IC50 [µM]
1,COc1ccc(-c2cc3nccn3c(Nc3ncccc3C(N)=O)n2)cc1OC,> 8

# Tested on: NCI-H1436;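 further: growth suppression of human NCI-H1436 cells, determined with a cell viability readout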
# Test: cells
# Type: functional, cell-based, Homo sapiens
# Details: Homo sapiens, NCI-H1436
# Description: SANGER: Inhibition of human NCI-H1436 cell growth in a cell viability assay.
row,SMILES,IC50 [µM]
1,COc1ccc(-c2cc3nccn3c(Nc3ncccc3C(N)=O)n2)cc1OC,> 8

# Tested on: IMR-5;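 further: growth inhibition of human IMR-5 cells, read out with a cell viability assay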
# Test: cells
# Type: functional, cell-based, Homo sapiens
# Details: Homo sapiens, IMR-5; read-out: IC50
# Description: SANGER: Inhibition of human IMR-5 cell growth in a cell viability assay.
row,SMILES,IC50 [µM]
1,COc1ccc(-c2cc3nccn3c(Nc3ncccc3C(N)=O)n2)cc1OC,6.08

# Tested on: M059J;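 further: growth inhibition of M059J cells, read out with a cell viability assay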
# Test: cells
# Type: functional, cell-based
# Details: Homo sapiens
# Description: SANGER: Inhibition of human M059J cell growth in a cell viability assay.
row,SMILES,IC50 [µM]
1,COc1ccc(-c2cc3nccn3c(Nc3ncccc3C(N)=O)n2)cc1OC,2.84
